From ChEMBL document CHEMBL4014333, “Discovery of Small Molecules for Repressing Cap-Independent Translation of Human Vascular Endothelial Growth Factor (hVEGF) as Novel Antitumor Agents” (J Med Chem, 2017)
Activity calls are given as the source filed them. How the calls were made is not given here. Numbered stars: 1 amine (or outer) side, 2 acyl side, 3 side chain; on linkers, the order of the positions; unused ones are H or OH. Square brackets hold non-standard residues; d marks the D form. Peptide text beside a SMILES is read from it. X1 = CN1CCC(COc2ccc3oc4c(N(CC(=O)[*:2])[*:1])c5ccccc5nc4c3c2)CC1

species: Homo sapiens; assay: Binding affinity to biotin-labeled human wild type internal ribosome entry site A RNA G-quadruplex by SPR analysis

| Activity | SMILES |
| --- | --- |
| Active | C[n+]1c2ccccc2c(NCC(=O)NC(CCCNC(=N)N)C(=O)O)c2oc3ccccc3c21 (stereo not drawn) |
| Active | CN1CCC(COc2ccc3oc4c(NCC(=O)NC(CCCCN)C(=O)NC(CCCNC(=N)N)C(=O)O)c5ccccc5nc4c3c2)CC1 (stereo not drawn) |
| Active | CN(C)CCNC(=O)COc1ccc2oc3c(NCCN(C)C)c4ccccc4[n+](C)c3c2c1 |
| Active | C[n+]1c2ccccc2c(NCC(=O)NC(CCCCN)C(=O)NC(CCCNC(=N)N)C(=O)O)c2oc3ccccc3c21 (stereo not drawn) |
| Active | CN1CCC(COc2ccc3oc4c(NCC(=O)NC(Cc5c[nH]cn5)C(=O)NC(CCCNC(=N)N)C(=O)O)c5ccccc5nc4c3c2)CC1 (stereo not drawn) |
| Active | C[n+]1c2ccccc2c(NCC(=O)NCC(=O)NC(CCCCN)C(=O)O)c2oc3ccccc3c21 (stereo not drawn) |
| Active | CN(C)CCCNc1c2ccccc2nc2c1oc1ccc(OCCCN(C)C)cc12 |
| Active | C[n+]1c2ccccc2c(NCCN2CCOCC2)c2oc3ccc(OCC(=O)NCCN4CCOCC4)cc3c21 |
| Active | CN1CCC(COc2ccc3oc4c(NCC(=O)NCC(=O)NC(CCCNC(=N)N)C(=O)NC(CCC(N)=O)C(=O)O)c5ccccc5nc4c3c2)CC1 (stereo not drawn) |
| Active | C[n+]1c2ccccc2c(NCCCN2CCOCC2)c2oc3ccc(OCC[N+]4(C)CCCCC4)cc3c21 |
| Active | C[n+]1c2ccccc2c(NCCCN2CCCCC2)c2oc3ccc(OCC(=O)NCCCN4CCCCC4)cc3c21 |
| Active | CN(C)CCCNc1c2ccccc2nc2c1oc1ccc(OCC3CCN(C)CC3)cc12 |
| Active | CN1CCC(COc2ccc3oc4c(NCC(=O)NCC(=O)NCC(=O)O)c5ccccc5nc4c3c2)CC1 |
| Active | CN1CCC(COc2ccc3oc4c(NCC(=O)NCC(=O)NC(Cc5c[nH]cn5)C(=O)O)c5ccccc5nc4c3c2)CC1 (stereo not drawn) |

The next lines start with the compound.

| SMILES | Activity |
| --- | --- |
| CCN(CC)CCOc1ccc(Nc2nc(-c3ccccc3N)nc3ccccc23)cc1 | Active |
| CN1CCC(COc2ccc3oc4c(NCC(=O)NCC(=O)NC(CCCNC(=N)N)C(=O)NC(Cc5c[nH]cn5)C(=O)O)c5ccccc5nc4c3c2)CC1 (stereo not drawn) | Active |
| COc1ccc2cc3[n+](cc2c1OCCC[n+]1ccc(N(C)C)cc1)CCc1cc2c(cc1-3)OCO2 | Active |
| COc1ccc2cc3[n+](cc2c1OCCCCCC[n+]1ccccc1)CCc1cc2c(cc1-3)OCO2 | Active |
| COc1ccc2cc3[n+](cc2c1NCCCCCCN)CCc1cc2c(cc1-3)OCO2 | Active |
| C[n+]1c2ccccc2c(NCC(=O)NC(Cc2ccccc2)C(=O)NC(CCCNC(=N)N)C(=O)O)c2oc3ccccc3c21 (stereo not drawn) | Active |
| COc1ccc2cc3[n+](cc2c1OCCCCC[n+]1ccccc1)CCc1cc2c(cc1-3)OCO2 | Active |
| COc1ccc2cc3[n+](cc2c1NCCN1CCOCC1)CCc1cc2c(cc1-3)OCO2 | Active |
| COc1ccc2cc3[n+](cc2c1OCCCn1cc[n+](C)c1)CCc1cc2c(cc1-3)OCO2 | Active |
| CN(C)CCCNc1c2ccccc2[n+](C)c2c1[nH]c1ccccc12 | Active |
| COc1ccc2cc3[n+](cc2c1NCCO)CCc1cc2c(cc1-3)OCO2 | Active |
| COc1ccc2cc3[n+](cc2c1OCCN)CCc1cc2c(cc1-3)OCO2 | Active |
| CN1CCC(COc2ccc3oc4c(NCC(=O)NCC(=O)NC(CCCNC(=N)N)C(=O)NC(Cc5c[nH]cn5)C(=O)NCC(=O)O)c5ccccc5nc4c3c2)CC1 (stereo not drawn) (H-[X1]GRHG-OH; configuration not given here) | Active |
| CN(C)CCCCOc1cccc2c1oc1c(NCCCN(C)C)c3ccccc3nc12 | Active |
| CN(C)CCNc1c2ccccc2[n+](C)c2c1[nH]c1cc(F)c(F)cc12 | Active |
| COc1ccc2cc3[n+](cc2c1NCCN1CCCCC1)CCc1cc2c(cc1-3)OCO2 | Active |
| COc1ccc2cc3[n+](cc2c1OCCCN)CCc1cc2c(cc1-3)OCO2 | Active |
| CCN(CC)CCOc1ccc(Nc2nc(-c3ccccc3NC(=O)CCCl)nc3ccccc23)cc1 | Active |
| COc1ccc2cc3[n+](cc2c1NCCN(C)C)CCc1cc2c(cc1-3)OCO2 | Active |
